{"source": "patent US20040063662A1", "about": "“Selenophene anti-tumor agents” (priority 1996, published 2004)", "key": {"MOLT-4": {"tested_on": "MOLT-4", "assay": "NCI human tumor cell panel: MOLT-4 (Leukemia)", "assay_type": "cell-based", "conditions": "MOLT-4, Leukemia"}, "RPMI-8226": {"tested_on": "RPMI-8226", "assay": "NCI human tumor cell panel: RPMI-8226 (Leukemia)", "assay_type": "cell-based", "conditions": "RPMI-8226, Leukemia"}, "SR": {"tested_on": "SR", "assay": "NCI human tumor cell panel: SR (Leukemia)", "assay_type": "cell-based", "conditions": "Leukemia"}, "EKVX": {"tested_on": "EKVX", "assay": "NCI human tumor cell panel: EKVX (Non-Small Cell Lung Cancer)", "assay_type": "cell-based", "conditions": "Non-Small Cell Lung Cancer"}, "HOP-62": {"tested_on": "HOP-62", "assay": "NCI human tumor cell panel: HOP-62 (Non-Small Cell Lung Cancer)", "assay_type": "cell-based", "conditions": "HOP-62, Non-Small Cell Lung Cancer"}, "NCI-H322M": {"tested_on": "NCI-H322M", "assay": "cells", "assay_type": "cell-based", "conditions": "Homo sapiens, Non-Small Cell Lung Cancer"}, "NCI-H460": {"tested_on": "NCI-H460", "assay": "NCI human tumor cell panel: NCI-H460 (Non-Small Cell Lung Cancer)", "assay_type": "cell-based", "conditions": "NCI-H460, Non-Small Cell Lung Cancer"}, "HCC-2998": {"tested_on": "HCC-2998", "assay": "NCI human tumor cell panel: HCC-2998 (Colon Cancer)", "assay_type": "cell-based", "conditions": "HCC-2998, Colon Cancer, read-out: Log10 GI50 (converted)"}, "HCT-116": {"tested_on": "HCT-116", "assay": "NCI human tumor cell panel: HCT-116 (Colon Cancer)", "assay_type": "cell-based", "conditions": "HCT-116, Colon Cancer"}, "HCT-15": {"tested_on": "HCT-15", "assay": "NCI human tumor cell panel: HCT-15 (Colon Cancer)", "assay_type": "cell-based", "conditions": "HCT-15, Colon Cancer"}, "HT29": {"tested_on": "HT29", "assay": "NCI human tumor cell panel: HT29 (Colon Cancer)", "assay_type": "cell-based", "conditions": "HT-29, HT29, Colon Cancer"}, "KM12": {"tested_on": "KM12", "assay": "NCI human tumor cell panel: KM12 (Colon Cancer)", "assay_type": "cell-based", "conditions": "KM12, Colon Cancer"}, "SW-620": {"tested_on": "SW-620", "assay": "NCI human tumor cell panel: SW-620 (Colon Cancer)", "assay_type": "cell-based", "conditions": "SW-620, Colon Cancer, read-out: Log10 TGI (converted)"}, "SF-295": {"tested_on": "SF-295", "assay": "NCI human tumor cell panel: SF-295 (CNS Cancer)", "assay_type": "cell-based", "conditions": "SF-295, CNS Cancer"}, "SF-539": {"tested_on": "SF-539", "assay": "NCI human tumor cell panel: SF-539 (CNS Cancer)", "assay_type": "cell-based", "conditions": "SF-539, CNS Cancer"}, "SNB-75": {"tested_on": "SNB-75", "assay": "NCI human tumor cell panel: SNB-75 (CNS Cancer)", "assay_type": "cell-based", "conditions": "SNB-75, CNS Cancer, read-out: Log10 GI50 (converted)"}, "U251": {"tested_on": "U251", "assay": "NCI human tumor cell panel: U251 (CNS Cancer)", "assay_type": "cell-based", "conditions": "U-251, U251, CNS Cancer"}, "LOX IMVI": {"tested_on": "LOX IMVI", "assay": "NCI human tumor cell panel: LOX IMVI (Melanoma)", "assay_type": "cell-based", "conditions": "Melanoma"}, "MALME-3M": {"tested_on": "MALME-3M", "assay": "NCI human tumor cell panel: MALME-3M (Melanoma)", "assay_type": "cell-based", "conditions": "MALME-3M, Melanoma"}, "M14": {"tested_on": "M14", "assay": "NCI human tumor cell panel: M14 (Melanoma)", "assay_type": "cell-based", "conditions": "M14, Melanoma"}, "UACC-257": {"tested_on": "UACC-257", "assay": "NCI human tumor cell panel: UACC-257 (Melanoma)", "assay_type": "cell-based", "conditions": "UACC-257, Melanoma"}, "UACC-62": {"tested_on": "UACC-62", "assay": "NCI human tumor cell panel: UACC-62 (Melanoma)", "assay_type": "cell-based", "conditions": "UACC-62, Melanoma"}, "OVCAR-3": {"tested_on": "OVCAR-3", "assay": "NCI human tumor cell panel: OVCAR-3 (Ovarian Cancer)", "assay_type": "cell-based", "conditions": "OVCAR-3, Ovarian Cancer"}, "OVCAR-4": {"tested_on": "OVCAR-4", "assay": "NCI human tumor cell panel: OVCAR-4 (Ovarian Cancer)", "assay_type": "cell-based", "conditions": "OVCAR-4, Ovarian Cancer"}, "OVCAR-8": {"tested_on": "OVCAR-8", "assay": "NCI human tumor cell panel: OVCAR-8 (Ovarian Cancer)", "assay_type": "cell-based", "conditions": "OVCAR-8, Ovarian Cancer"}, "ACHN": {"tested_on": "ACHN", "assay": "NCI human tumor cell panel: ACHN (Renal Cancer)", "assay_type": "cell-based", "conditions": "Renal Cancer"}, "UO-31": {"tested_on": "UO-31", "assay": "NCI human tumor cell panel: UO-31 (Renal Cancer)", "assay_type": "cell-based", "conditions": "UO-31, Renal Cancer"}, "DU-145": {"tested_on": "DU-145", "assay": "NCI human tumor cell panel: DU-145 (Prostate Cancer)", "assay_type": "cell-based", "conditions": "DU-145, Prostate Cancer"}, "MCF7": {"tested_on": "MCF7", "assay": "NCI human tumor cell panel: MCF7 (Breast Cancer)", "assay_type": "cell-based", "conditions": "MCF7, Breast Cancer"}, "MDA-MB-435": {"tested_on": "MDA-MB-435", "assay": "NCI human tumor cell panel: MDA-MB-435 (Breast Cancer)", "assay_type": "cell-based", "conditions": "MDA-MB-435, Breast Cancer"}, "MDA-N": {"tested_on": "MDA-N", "assay": "NCI human tumor cell panel: MDA-N (Breast Cancer)", "assay_type": "cell-based", "conditions": "Breast Cancer"}, "HOP-92": {"tested_on": "HOP-92", "assay": "NCI human tumor cell panel: HOP-92 (Non-Small Cell Lung Cancer)"}, "[1]": {"conditions": "read-out: Log10 GI50 (converted)"}, "[2]": {"conditions": "read-out: Log10 TGI (converted)"}}, "data": [{"molecule": "O=Cc1ccc(-c2ccc(-c3cccs3)[se]2)s1", "note": "[NSC 675346]", "values": [{"measurement": "GI50", "setting": "MOLT-4; [1]", "value": "> 100", "unit": "µM"}, {"measurement": "IC (TGI)", "setting": "MOLT-4; [2]", "value": "> 100", "unit": "µM"}, {"measurement": "GI50", "setting": "RPMI-8226; [1]", "value": "> 100", "unit": "µM"}, {"measurement": "IC (TGI)", "setting": "RPMI-8226; read-out: Log10 TGI", "value": "> 100", "unit": "µM"}, {"measurement": "GI50", "setting": "SR; [1]", "value": "> 100", "unit": "µM"}, {"measurement": "IC (TGI)", "setting": "SR; [2]", "value": "> 100", "unit": "µM"}, {"measurement": "GI50", "setting": "EKVX; [1]", "value": 77.6, "unit": "µM"}, {"measurement": "IC (TGI)", "setting": "EKVX; [2]", "value": "> 100", "unit": "µM"}, {"measurement": "GI50", "setting": "HOP-62; [1]", "value": 64.6, "unit": "µM"}, {"measurement": "IC (TGI)", "setting": "HOP-62; [2]", "value": "> 100", "unit": "µM"}, {"measurement": "GI50", "setting": "NCI-H322M; [1]", "value": 12.9, "unit": "µM"}, {"measurement": "IC (TGI)", "setting": "NCI-H322M; [2]", "value": "> 100", "unit": "µM"}, {"measurement": "GI50", "setting": "NCI-H460; [1]", "value": 0.251, "unit": "µM"}, {"measurement": "IC (TGI)", "setting": "NCI-H460; [2]", "value": "> 100", "unit": "µM"}, {"measurement": "GI50", "setting": "HCC-2998", "value": 0.234, "unit": "µM"}, {"measurement": "GI50", "setting": "HCT-116; [1]", "value": 0.115, "unit": "µM"}, {"measurement": "IC (TGI)", "setting": "HCT-116; [2]", "value": "> 100", "unit": "µM"}, {"measurement": "GI50", "setting": "HCT-15; [1]", "value": 18.6, "unit": "µM"}, {"measurement": "IC (TGI)", "setting": "HCT-15; [2]", "value": "> 100", "unit": "µM"}, {"measurement": "GI50", "setting": "HT29; [1]", "value": "> 100", "unit": "µM"}, {"measurement": "IC (TGI)", "setting": "HT29; [2]", "value": "> 100", "unit": "µM"}, {"measurement": "GI50", "setting": "KM12; [1]", "value": 32.4, "unit": "µM"}, {"measurement": "IC (TGI)", "setting": "KM12; [2]", "value": "> 100", "unit": "µM"}, {"measurement": "IC (TGI)", "setting": "SW-620", "value": "> 100", "unit": "µM"}, {"measurement": "GI50", "setting": "SF-295; [1]", "value": 21.4, "unit": "µM"}, {"measurement": "IC (TGI)", "setting": "SF-295; [2]", "value": 69.2, "unit": "µM"}, {"measurement": "GI50", "setting": "SF-539; [1]", "value": 51.3, "unit": "µM"}, {"measurement": "IC (TGI)", "setting": "SF-539; [2]", "value": "> 100", "unit": "µM"}, {"measurement": "GI50", "setting": "SNB-75", "value": 13.8, "unit": "µM"}, {"measurement": "GI50", "setting": "U251; [1]", "value": 0.0575, "unit": "µM"}, {"measurement": "IC (TGI)", "setting": "U251; [2]", "value": 25.7, "unit": "µM"}, {"measurement": "GI50", "setting": "LOX IMVI; [1]", "value": 19.5, "unit": "µM"}, {"measurement": "IC (TGI)", "setting": "LOX IMVI; [2]", "value": "> 100", "unit": "µM"}, {"measurement": "GI50", "setting": "MALME-3M; [1]", "value": 34.7, "unit": "µM"}, {"measurement": "IC (TGI)", "setting": "MALME-3M; [2]", "value": "> 100", "unit": "µM"}, {"measurement": "GI50", "setting": "M14; [1]", "value": 28.2, "unit": "µM"}, {"measurement": "IC (TGI)", "setting": "M14; [2]", "value": "> 100", "unit": "µM"}, {"measurement": "GI50", "setting": "UACC-257; [1]", "value": 0.0263, "unit": "µM"}, {"measurement": "IC (TGI)", "setting": "UACC-257; [2]", "value": 0.0832, "unit": "µM"}, {"measurement": "GI50", "setting": "UACC-62; [1]", "value": "< 0.01", "unit": "µM"}, {"measurement": "IC (TGI)", "setting": "UACC-62; [2]", "value": 0.0282, "unit": "µM"}, {"measurement": "GI50", "setting": "OVCAR-3; [1]", "value": 0.0191, "unit": "µM"}, {"measurement": "IC (TGI)", "setting": "OVCAR-3; [2]", "value": 21.4, "unit": "µM"}, {"measurement": "GI50", "setting": "OVCAR-4; [1]", "value": 0.12, "unit": "µM"}, {"measurement": "IC (TGI)", "setting": "OVCAR-4; [2]", "value": 26.9, "unit": "µM"}, {"measurement": "GI50", "setting": "OVCAR-8; [1]", "value": 4.47, "unit": "µM"}, {"measurement": "IC (TGI)", "setting": "OVCAR-8; [2]", "value": "> 100", "unit": "µM"}, {"measurement": "GI50", "setting": "ACHN; [1]", "value": 22.9, "unit": "µM"}, {"measurement": "IC (TGI)", "setting": "ACHN; [2]", "value": "> 100", "unit": "µM"}, {"measurement": "GI50", "setting": "UO-31; [1]", "value": 35.5, "unit": "µM"}, {"measurement": "IC (TGI)", "setting": "UO-31; [2]", "value": "> 100", "unit": "µM"}, {"measurement": "GI50", "setting": "DU-145; [1]", "value": 28.8, "unit": "µM"}, {"measurement": "IC (TGI)", "setting": "DU-145; [2]", "value": "> 100", "unit": "µM"}, {"measurement": "GI50", "setting": "MCF7; [1]", "value": 0.813, "unit": "µM"}, {"measurement": "IC (TGI)", "setting": "MCF7; [2]", "value": "> 100", "unit": "µM"}, {"measurement": "GI50", "setting": "MDA-MB-435; [1]", "value": 28.2, "unit": "µM"}, {"measurement": "IC (TGI)", "setting": "MDA-MB-435; [2]", "value": 87.1, "unit": "µM"}, {"measurement": "GI50", "setting": "MDA-N; [1]", "value": "> 100", "unit": "µM"}, {"measurement": "IC (TGI)", "setting": "MDA-N; [2]", "value": "> 100", "unit": "µM"}, {"measurement": "GI50", "setting": "HOP-92; HOP-92, read-out: Log10 GI50 (converted)", "value": 18.6, "unit": "µM"}, {"measurement": "IC (TGI)", "setting": "HOP-92; HOP-92, read-out: Log10 TGI", "value": 70.8, "unit": "µM"}]}]}
